US10696971B2, “MrgprX2/MrgprB2 expressing cell based assay to detect pseudo-allergic drug reactions and to identify blockers to prevent the adverse reactions” (The Johns Hopkins University, priority 2014, dated 2020)

Key:
LAD2 human mast cells = experiment: LAD2 degranulation assay (β-hexosaminidase release), with MrgprX2 siRNA knockdown; assay type: cell-based; conditions: compound 48/80 0.1, mastoparan 5, icatibant 10, atracurium 25, ciprofloxacin 75 μg/ml
Experimental: LAD2 cells were sensitized for 20 hours with 0.5 μg/ml biotin-conjugated human IgE (Abbiotec). Cells were washed, resuspended in Hepes buffer (10 mM HEPES, 137 mM NaCl, 2.7 mM KCl, 0.38 mM Na2HPO4.7H2O, 5.6 mM glucose, 1.8 mM CaCl2.H2O, 1.3 mM MgSO4.7H2O, 0.4% BSA, pH 7.4) at 0.025×10^6 per well, and then stimulated with 0.1 μg/ml streptavidin (Life Technologies) or other agonists at the indicated concentrations for 30 minutes at 37° C./5% CO2. The β-hexosaminidase released into the supernatants and in cell lysates was quantified by hydrolysis of p-nitrophenyl N-acetyl-β-D-glucosamide (Sigma-Aldrich) in 0.1 M sodium citrate buffer (pH 4.5) for 90 minutes at 37° C. The percentage of β-hexosaminidase release was calculated as a percent of total content.
LAD2 cells were washed with medium, suspended at 0.5×10^6 cells per well, and transfected with 100 nm MrgprX2 siRNA and control siRNA in antibiotic-free StemPro medium using Lipofectamine 3000 (Life Technologies) according to the manufacturer's instruction at 37° C./5% CO2. At 48 hours, knockdown was confirmed by reverse-transcriptase PCR, and the cells were used for degranulation assays.

peritoneal mast cells = experiment: Mouse peritoneal mast cell histamine release assay; assay type: cell-based; conditions: WT vs MrgprB2^MUT peritoneal mast cells
Experimental: Mast cells were purified as with the calcium imaging assay and allowed to recover for 2 hours in DMEM with 10% FBS and 25 ng/ml mouse stem cell factor in a 37° C. incubator with 5% CO2. Cells were then spun down, resuspended in CIB, counted, and plated at 300 cells/well in 75 μl CIB in 96-well plates coated with 20 μg/ml fibronectin (Sigma). They were allowed to adhere to the substrate for 45 minutes at 37° C. in atmospheric conditions (i.e. CO2 levels were not adjusted) before assay. […] After 5 minutes, 40 μl of supernatant was aspirated, diluted with 40 μl CIB and frozen at −80° C. until histamine levels were determined. Anti-IgE treatment was similar, except that cells were incubated for 30 minutes at 37° C. after anti-IgE was added before aspiration of supernatant. Histamine content was determined by using an HTRF histamine assay kit (Cisbio Assays) according to the manufacturer's instructions.

WT and MrgprB2^MUT mice = experiment: Systemic anaphylaxis assay (body core temperature); assay type: in vivo, mouse; conditions: ciprofloxacin i.v. 1.5 mg in 125 μl saline after propranolol, much smaller drop in MrgprB2^MUT
Experimental: To minimize stress, animals were transported to the procedure area the day before injections. Adult male and female mice up to 8 months of age (25 to 35 grams) were given an intraperitoneal injection of 80 μg propranolol in saline (2 mg/ml) immediately after removal from their cages, and then placed back in their cages for 30 minutes before intravenous injections. The intravenous injections were performed on one mouse at a time. For each injection, a mouse was placed in a transport box and brought to a room with no other mice, to minimize stress from vocalizations during injection. The mouse was then placed in a restrainer, and the injection was performed within 4 minutes of restraint because it was observed that longer restraint times affected body core temperature independent from the injection. […] The injection was determined to be successful only when all of the criteria were met: blood appeared in the syringe after needle insertion, all tail veins were visible after injection, and the mouse bled slightly from the injection site after needle withdrawal. The injection site was swabbed until blood stopped flowing, the mouse was placed in a separate cage from its housing cage, one mouse per cage, and returned to the room it was brought from. […] Body core temperature was measured with a rectal thermometer.

## O=C(O)c1cn(C2CC2)c2cc(N3CCNCC3)c(F)cc2c1=O [ciprofloxacin]
LAD2 human mast cells
  β-hexosaminidase release in MrgprX2 siRNA vs control siRNA cells: significantly reduced
Peritoneal mast cells
  histamine release from WT peritoneal mast cells (MrgprB2^MUT released substantially less): induced histamine release
WT and MrgprB2^MUT mice
  change in body temperature: induced a rapid drop in body temperature
